PubChem BioAssay AID1963974 (Molecular Pharmacology Branch, DTP, NCI, 2024)

Test system: 648629-189-R-J1-PDC spheroids with HUVEC/MSC, viability
Experiment: Anticancer human tumor 648629-189-R-J1-PDC patient-derived bladder carcinoma cell line growth inhibition [PI3K]
Settings: for IC50: curve of first compound; for viability, T/C: stronger effect = lower value
Method in brief: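 High-throughput combination screen: PI3K inhibitors crossed with targeted small molecules on complex spheroids of tumor cells, HUVEC and MSCs at 37 degrees C, 5% CO2. Top concentration was at or near clinical Cmax (otherwise 10 microM), with half-log decrements.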
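Also: spheroids exposed to agents for seven days before reading.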
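For viability, T/C in this document: percent of vehicle control luminescence where 100% = DMSO treated spheroids.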

`CC(=O)c1c(C)c2cnc(Nc3ccc(N4CCNCC4)cn3)nc2n(C2CCCC2)c1=O` + Cc1nc(NC(=O)N2CCCC2C(N)=O)sc1-c1ccnc(C(C)(C)C(F)(F)F)c1 gave an IC50 (second compound 0.0316 µM) greater than 100 nM, an IC50 (second compound 0.1 µM) greater than 100 nM and an IC50 (second compound 0.316 µM) greater than 100 nM. It also gave an IC50 (second compound 1 µM) greater than 100 nM, an IC50 (second compound 3.16 µM) greater than 100 nM and an IC50 (second compound 10 µM) of less than 0.316 nM. The viability, T/C (second compound 0.0316 µM, first compound 0.000316 µM) was 91.4%, the viability, T/C (second compound 0.0316 µM, first compound 0.001 µM) was 91.7% and the viability, T/C (second compound 0.0316 µM, first compound 0.00316 µM) was 100%. It also gave a viability, T/C (second compound 0.0316 µM, first compound 0.01 µM) of 100%, a viability, T/C (second compound 0.0316 µM, first compound 0.0316 µM) of 96.6% and a viability, T/C (second compound 0.0316 µM, first compound 0.1 µM) of 101%. For the same compound, the viability, T/C (second compound 0.1 µM, first compound 0.000316 µM) was 91.1%, the viability, T/C (second compound 0.1 µM, first compound 0.001 µM) was 96.9% and the viability, T/C (second compound 0.1 µM, first compound 0.00316 µM) was 93.7%. The viability, T/C (second compound 0.1 µM, first compound 0.01 µM) was 91.9%, the viability, T/C (second compound 0.1 µM, first compound 0.0316 µM) was 107% and the viability, T/C (second compound 0.1 µM, first compound 0.1 µM) was 91.2%. For the same compound, the viability, T/C (second compound 0.316 µM, first compound 0.000316 µM) was 80.9%, the viability, T/C (second compound 0.316 µM, first compound 0.001 µM) was 86.1% and the viability, T/C (second compound 0.316 µM, first compound 0.00316 µM) was 85.1%. It also gave a viability, T/C (second compound 0.316 µM, first compound 0.01 µM) of 84.1%, a viability, T/C (second compound 0.316 µM, first compound 0.0316 µM) of 90.2% and a viability, T/C (second compound 0.316 µM, first compound 0.1 µM) of 85.3%. The viability, T/C (second compound 1 µM, first compound 0.000316 µM) was 72.4%, the viability, T/C (second compound 1 µM, first compound 0.001 µM) was 68.1% and the viability, T/C (second compound 1 µM, first compound 0.00316 µM) was 73.7%. It also gave a viability, T/C (second compound 1 µM, first compound 0.01 µM) of 71.7%, a viability, T/C (second compound 1 µM, first compound 0.0316 µM) of 70.5% and a viability, T/C (second compound 1 µM, first compound 0.1 µM) of 71.9%. The viability, T/C (second compound 3.16 µM, first compound 0.000316 µM) was 52.6%, the viability, T/C (second compound 3.16 µM, first compound 0.001 µM) was 53.2% and the viability, T/C (second compound 3.16 µM, first compound 0.00316 µM) was 61.6%. The viability, T/C (second compound 3.16 µM, first compound 0.01 µM) was 54.9%, the viability, T/C (second compound 3.16 µM, first compound 0.0316 µM) was 54.6% and the viability, T/C (second compound 3.16 µM, first compound 0.1 µM) was 54.6%. It also gave a viability, T/C (second compound 10 µM, first compound 0.000316 µM) of 36.5%, a viability, T/C (second compound 10 µM, first compound 0.001 µM) of 44.9% and a viability, T/C (second compound 10 µM, first compound 0.00316 µM) of 38.9%. It also gave a viability, T/C (second compound 10 µM, first compound 0.01 µM) of 30.1%, a viability, T/C (second compound 10 µM, first compound 0.0316 µM) of 44.1% and a viability, T/C (second compound 10 µM, first compound 0.1 µM) of 34%.
